Laboratory results published in patent US8952024B2, “Herbicidal pyrimidone derivatives” (E I du Pont de Nemours and Company, priority 2009, dated 2015).

Assays:
Format in all cases: in vivo
Details in all cases: Postemergence
[1] = system: johnsongrass (Sorghum halepense); test: Test B pre-/postemergence plant response
Text: (§1) Seeds of plant species selected from blackgrass (Alopecurus myosuroides), downy bromegrass (Bromus tectorum), green foxtail (Setaria viridis), Italian ryegrass (Lolium multiflorum), wheat (Triticum aestivum), wild oat (Avena fatua), deadnettle (henbit deadnettle, Lamium amplexicaule), galium (catchweed bedstraw, Galium aparine), bermudagrass (Cynodon dactylon), Surinam grass (Brachiaria decumbens), cocklebur (Xanthium strumarium), corn (Zea mays), large crabgrass (Digitaria sanguinalis), woolly cupgrass (Eriochloa villosa), giant foxtail (Setaria faberii), goosegrass (Eleusine indica), johnsongrass (Sorghum halepense), kochia (Kochia scoparia), lambsquarters (Chenopodium album), morningglory (Ipomoea coccinea), nightshade (eastern black nightshade, Solanum ptycanthum), yellow nutsedge (Cyperus esculentus), pigweed (Amaranthus retroflexus), ragweed (common ragweed, Ambrosia elatior), Russian thistle (Salsola kali), soybean (Glycine max), sunflower (common oilseed sunflower, Helianthus annuus) and velvetleaf (Abutilon theophrasti) were planted into a blend of loam soil and sand and treated preemergence with test compounds formulated in a non-phytotoxic solvent mixture which included a surfactant.
(§2) At the same time, plants selected from these crop and weed species and also winter barley (Hordeum vulgare), canarygrass (Phalaris minor), chickweed (Stellaria media) and windgrass (Apera spica-venti) were planted in pots containing Redi-Earth® planting medium (Scotts Company, 14111 Scottslawn Road, Marysville, Ohio 43041) comprising spaghnum peat moss, vermiculite, wetting agent and starter nutrients and treated with postemergence applications of some of the test chemicals formulated in the same manner. Plants ranged in height from 2 to 18 cm (1- to 4-leaf stage) for postemergence treatments.
(§3) Treated plants and controls were maintained in a greenhouse for 13 to 15 days, after which time all treated plants were visually evaluated and compared to controls. Plant response ratings, summarized in Table B, are based on a scale of 0 to 100 where 0 is no effect and 100 is complete control. A dash (-) response means no test result.

[2] = system: bermudagrass (Cynodon dactylon); test: Test B pre-/postemergence plant response
Text: as §1, §2, §3

[3] = system: cocklebur (Xanthium strumarium); test: Test B pre-/postemergence plant response
Text: as §1, §2, §3

[4] = system: downy bromegrass (Bromus tectorum); test: Test B pre-/postemergence plant response
Text: as §1, §2, §3

kochia (Kochia scoparia) = test: Test B pre-/postemergence plant response
Text: as §1, §2, §3

[5] = system: blackgrass (Alopecurus myosuroides); test: Test B pre-/postemergence plant response
Text: as §1, §2, §3

soybean (Glycine max) = test: Test B pre-/postemergence plant response
Text: as §1, §2, §3

[6] = system: green foxtail (Setaria viridis); test: Test B pre-/postemergence plant response
Text: as §1, §2, §3

wild oat (Avena fatua) = test: Test B pre-/postemergence plant response
Text: as §1, §2, §3

[7] = system: morningglory (Ipomoea coccinea); test: Test B pre-/postemergence plant response
Text: as §1, §2, §3

[8] = system: giant foxtail (Setaria faberii); test: Test B pre-/postemergence plant response
Text: as §1, §2, §3

[9] = system: ragweed (common ragweed, Ambrosia elatior); test: Test B pre-/postemergence plant response
Text: as §1, §2, §3

[10] = system: yellow nutsedge (Cyperus esculentus); test: Test B pre-/postemergence plant response
Text: as §1, §2, §3

[11] = system: velvetleaf (Abutilon theophrasti); test: Test B pre-/postemergence plant response
Text: as §1, §2, §3

[12] = system: wheat (Triticum aestivum); test: Test B pre-/postemergence plant response
Text: as §1, §2, §3

[13] = system: canarygrass (Phalaris minor); test: Test B postemergence plant response
In short: (§4)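 Plants grown in peat/vermiculite medium were sprayed postemergence at 2–18 cm height (1- to 4-leaf stage). After 13–15 days in the greenhouse, response was rated visually against untreated controls on a 0–100 scale (0 no effect, 100 complete control).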

[14] = system: chickweed (Stellaria media); test: Test B postemergence plant response
In short: as §4

[15] = system: windgrass (Apera spica-venti); test: Test B postemergence plant response
In short: as §4

[16] = 31 g ai/ha, 0 to 100 scale (0 no effect, 100 complete control)
[17] = 125 g ai/ha, scale 0 to 100 (0 no effect, 100 complete control)
[18] = 250 g ai/ha, scale 0 to 100 (0 no effect, 100 complete control), 13 to 15 days
[19] = 62 g ai/ha, scale 0 to 100 (0 no effect, 100 complete control)

Compound: CCCn1c(-c2ccccc2)ncc(C(=O)C2=C(O)C3CCC(C3)C2=O)c1=O (stereo not drawn) [Compound 226]
- Plant response rating, Johnsongrass [1, 16]: 85
- Plant response rating, Johnsongrass [1, 17]: 100
- Plant response rating, Johnsongrass [1, 18]: 100
- Plant response rating, Johnsongrass [1, 19]: 85
- Plant response rating, Bermudagrass [2, 16]: 80
- Plant response rating, Bermudagrass [2, 17]: 85
- Plant response rating, Bermudagrass [2, 18]: 98
- Plant response rating, Bermudagrass [2, 19]: 80
- Plant response rating, Cocklebur [3, 16]: 98
- Plant response rating, Cocklebur [3, 17]: 100
- Plant response rating, Cocklebur [3, 18]: 100
- Plant response rating, Cocklebur [3, 19]: 98
- Plant response rating, Bromegrass, Downy [4, 16]: 0
- Plant response rating, Bromegrass, Downy [4, 17]: 5
- Plant response rating, Bromegrass, Downy [4, 18]: 30
- Plant response rating, Bromegrass, Downy [4, 19]: 0
- Plant response rating, Kochia (kochia (Kochia scoparia); [16]): 80
- Plant response rating, Kochia (kochia (Kochia scoparia); [17]): 100
- Plant response rating, Kochia (kochia (Kochia scoparia); [18]): 100
- Plant response rating, Kochia (kochia (Kochia scoparia); [19]): 85
- Plant response rating, Blackgrass [5, 16]: 5
- Plant response rating, Blackgrass [5, 17]: 40
- Plant response rating, Blackgrass [5, 18]: 60
- Plant response rating, Blackgrass [5, 19]: 30
- Plant response rating, Soybean (soybean (Glycine max); [16]): 95
- Plant response rating, Soybean (soybean (Glycine max); [18]): 100
- Plant response rating, Soybean (soybean (Glycine max); [19]): 98
- Plant response rating, Foxtail, Green [6, 16]: 70
- Plant response rating, Foxtail, Green [6, 17]: 90
- Plant response rating, Foxtail, Green [6, 18]: 90
- Plant response rating, Foxtail, Green [6, 19]: 80
- Plant response rating, Oat, Wild (wild oat (Avena fatua); [16]): 25
- Plant response rating, Oat, Wild (wild oat (Avena fatua); [18]): 50
- Plant response rating, Oat, Wild (wild oat (Avena fatua); [19]): 30
- Plant response rating, Morningglory [7, 16]: 98
- Plant response rating, Morningglory [7, 17]: 100
- Plant response rating, Morningglory [7, 18]: 100
- Plant response rating, Morningglory [7, 19]: 98
- Plant response rating, Foxtail, Giant [8, 16]: 85
- Plant response rating, Foxtail, Giant [8, 17]: 95
- Plant response rating, Foxtail, Giant [8, 18]: 95
- Plant response rating, Foxtail, Giant [8, 19]: 90
- Plant response rating, Ragweed [9, 16]: 80
- Plant response rating, Ragweed [9, 18]: 90
- Plant response rating, Ragweed [9, 19]: 85
- Plant response rating, Nutsedge, Yellow [10, 16]: 55
- Plant response rating, Nutsedge, Yellow [10, 17]: 70
- Plant response rating, Nutsedge, Yellow [10, 18]: 75
- Plant response rating, Nutsedge, Yellow [10, 19]: 65
- Plant response rating, Velvetleaf [11, 16]: 85
- Plant response rating, Velvetleaf [11, 18]: 98
- Plant response rating, Velvetleaf [11, 19]: 85
- Plant response rating, Wheat [12, 16]: 10
- Plant response rating, Wheat [12, 18]: 30
- Plant response rating, Wheat [12, 19]: 15
- Plant response rating, Canarygrass [13, 16]: 5
- Plant response rating, Canarygrass [13, 17]: 50
- Plant response rating, Canarygrass [13, 18]: 60
- Plant response rating, Canarygrass [13, 19]: 30
- Plant response rating, Chickweed [14, 16]: 75
- Plant response rating, Chickweed [14, 17]: 85
- Plant response rating, Chickweed [14, 18]: 95
- Plant response rating, Chickweed [14, 19]: 75
- Plant response rating, Windgrass [15, 16]: 10
- Plant response rating, Windgrass [15, 18]: 85
- Plant response rating, Windgrass [15, 19]: 50
